Key:
Format in all cases: cell-based
[1] = system: MDCK cell nucleus; assay: IP3 generation in the MDCK cell nucleus with nuclear-localized probe; settings: 100 μM ATP stimulation, probe with nuclear localization sequence in nucleus, FIG. 4
From the text: The probe was linked with the nuclear localization sequence of SEQ ID NO: 4 at the C terminal thereof, and expressed in MDCK cell.

[2] = system: purine receptor of the MDCK cell; assay: ATP-dependent IP3 generation in MDCK cells visualized with the probe
Procedure: FIG. 2 is visualization of ATP-dependent IP3 generation in MDCK cells using the probe of this invention. (a), 100 μM ATP; (b), […]; and (c), 1 μM ATP.
(§1) cDNA encoding a probe for IP3 detection and quantification (FIG. 1) was prepared by a genetic engineering method, and introduced into MDCK cell. Expression of the probe in the cytoplasm was confirmed since fluorescence was observed from the cells with a fluorescence microscope.
An increase in fluorescence intensity ratio (CFP/YFP) was observed by stimulating a purine receptor of the MDCK cell as obtained in Example 1 with 100 μM ATP (FIG. 2a).

[3] = molecular target: T1, probe for IP3 detection and quantification expressed in MDCK cell (Homo sapiens, UniProt Q14643); assay: IP3 microinjection into MDCK cell expressing the FRET probe; settings: each introduction of a small amount of IP3 by microinjection
T1 construct: a region from 224th amino acid to 579th amino acid of the type 1 IP3 receptor; expressed in transfected cells; host or cells: MDCK cells
T1 sequence (Q14643 224-579): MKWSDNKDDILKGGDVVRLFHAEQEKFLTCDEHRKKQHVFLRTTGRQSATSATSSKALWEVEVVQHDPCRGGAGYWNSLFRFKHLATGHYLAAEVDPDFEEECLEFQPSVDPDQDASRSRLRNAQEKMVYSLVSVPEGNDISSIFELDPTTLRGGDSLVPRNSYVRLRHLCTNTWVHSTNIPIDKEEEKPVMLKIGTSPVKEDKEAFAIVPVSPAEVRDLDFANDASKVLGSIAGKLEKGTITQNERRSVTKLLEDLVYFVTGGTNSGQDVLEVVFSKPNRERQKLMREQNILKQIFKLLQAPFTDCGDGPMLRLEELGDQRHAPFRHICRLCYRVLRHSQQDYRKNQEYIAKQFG
Procedure: as §1
Into the MDCK cell expressing the probe as obtained in Example 1, IP3 was introduced by a microinjection method.

[4] = system: neuron prepared from hippocampus of a rat embryo; assay: IP3 kinetics in neuron expressing the probe on glutamate stimulation; settings: 20 μM glutamate stimulation, cell body and dendrites, FIG. 3
From the text: The probe was expressed in a neuron prepared from hippocampus of a rat embryo, and IP3 kinetics in the neuron was observed.

## Nc1ncnc2c1ncn2[C@@H]1O[C@H](COP(=O)(O)OP(=O)(O)OP(=O)(O)O)[C@@H](O)[C@H]1O [ATP]
[1]
  IP3 concentration: temporally increased
[2]; 1 μM ATP stimulation, FIG. 2c
  response of the probe: a response of the probe was also observed depend on ATP concentration
[2]; 10 μM ATP stimulation, FIG. 2b
  response of the probe: a response of the probe was also observed depend on ATP concentration
[2]; 100 μM ATP stimulation, FIG. 2a
  fluorescence intensity ratio (CFP/YFP): increase

## O=P(O)(O)O[C@@H]1[C@H](O)[C@H](O)[C@@H](OP(=O)(O)O)[C@H](OP(=O)(O)O)[C@H]1O [IP3, Inositol-1,4,5-trisphosphate]
[3]
  CFP/YFP fluorescence intensity ratio: stepwise increased and saturated soon

## N[C@@H](CCC(=O)O)C(=O)O [glutamate]
[4]
  IP3 concentration: temporally increased in not only the cell body but also the dendrites

Reference: patent US20090208970A1, “Probe for detection and quantification of inositol-1,4,5-trisphosphate and a method for detecting and quantifying inositol-1,4,5-trisphosphate using the same” (priority 2004, published 2009)
